Values quoted from earlier work, collected in patent US20170003257A1, “WETNESS INDICATOR WITH TWO COLORANTS AND TWO STABILIZERS” (The Procter & Gamble Company, priority 2015, published 2017).
Where two headings read alike, the source gives them in different places.

Legend:
[1] = Table 2 stabilizers; for pKa (1): first pKa; for pKa (2): second pKa; for pKa (3): third pKa

SMILES | pKa (1) [1] | pKa (2) [1] | other results
CC(=O)CC(=O)O [Acetoacetic acid] | 3.6 |  | 
N=C(N)NCCC[C@H](N)C(=O)O [Arginine] | 1.8 |  | 
O=C1O[C@H]([C@@H](O)CO)C(O)=C1O [Ascorbic acid] |  | 11.8 | 
C[N+](C)(C)CC(=O)O [Betaine] | 1.83 |  | 
OB(O)O [Boric acid] | 9.3 | 12.7 | pKa (3) [1]: 13.8
Oc1ccccc1O [Catechol] | 9.4 | 12.8 | 
O=C(O)C(O)CO (stereo not shown) [Glyceric acid] | 3.5 |  | 
O=CC(=O)O [Glyoxylic acid] | 3.2 |  | 
CCCCCCCN [Heptylamine] | 10.7 |  | 
CCCCCCN [Hexylamine] | 10.6 |  | 
Oc1ccc(O)cc1 [Hydroquinone] | 10.3 |  | 
CN(C)c1ccc(C(=C2C=CC(=[N+](C)C)C=C2)c2ccccc2)cc1 [Malachite Green] |  |  | pKa (Alkaline pH range): 12.8
CC[N+](CC)=c1ccc2nc3c(cc(N)c4ccccc43)oc-2c1 [Nile Blue] |  |  | pKa (Table 1 colorants): 9.7
NC(C(=O)O)c1ccccc1 (stereo not shown) [Phenylglycine] | 1.8 | 4.4 | 
O=C(O)c1ccccn1 [Picolinic acid] | 1.1 | 5.2 | 
Oc1ccccc1O [Pyrocatechol] | 9.4 | 12.8 | 
O=c1ccc2[n+]([O-])c3ccc(O)cc3oc-2c1 [Resazurin] |  |  | pKa (Table 1 colorants): 5.1
Oc1cccc(O)c1 [Resorcinol] | 9.3 | 11.1 | 
N[C@@H](CO)C(=O)O [Serine] |  | 9.0 | 
Cc1cc(O)c(C(C)C)cc1C1(c2cc(C(C)C)c(O)cc2C)OC(=O)c2ccccc21 [Thymolphthalein] |  |  | pKa (Table 1 colorants): 9.8
NCCc1ccc(O)cc1 [Tyramine] | 9.8 | 10.5 | 
Cc1ccccc1C(=O)O [o-Toluic acid] | 3.9 |  | 
Cc1ccc(C(=O)O)cc1 [p-Toluic acid] | 4.4 |  | 

The next lines start with results.

pKa (1) [1] | pKa (2) [1] | SMILES | other results
4.8 |  | CC(C)CCC(=O)O [4-Methylpentanoic acid] | 
5.0 |  | O=C(O)c1ccncc1 [4-Pyridinecarboxylic acid] | 
10.6 |  | CCCCCCCCCCN [Decylamine] | 
10.7 | 12.0 | CC(=NO)C(C)=NO [Dimethylglyoxime] | 
2.8 |  | O=C(O)c1cncc(C(=O)O)c1 [Dinicotinic acid] | 
6.8 |  | NCCN [Ethylenediamine] | 
−0.21 | 1.5 | O=C(O)CN(CCN(CC(=O)O)CC(=O)O)CC(=O)O [Ethylenediaminetetraacetic acid (EDTA), Ethylenediaminetetraacetic acid] | pKa (5) ([1]; fifth pKa): 6.7; pKa (4) ([1]; fourth pKa): 3.1; pKa (3) [1]: 2.2
4.7 |  | O=C(O)CCCCCC(=O)O [Heptanedioic acid] | 
11.9 | 10.8 | NCCCCCCN [Hexamethylenediamine] | 
 | 9.3 | N[C@@H](Cc1ccccc1)C(=O)O [Phenylalanine] | 
 | 7.2 | O=S(O)O [Sulfurous acid] | 
3.9 |  | O=c1[nH]c(=O)c2[nH]c(=O)[nH]c2[nH]1 [Uric acid] | 
